Assay results reported in ChEMBL document CHEMBL4138253, “Synthesis and Biological Evaluation of a Series of Bile Acid Derivatives as FXR Agonists for Treatment of NASH” (ACS Med Chem Lett, 2017).

Tests used:
[1] = Ratio of drug level in liver to plasma in C57BL/6 mouse at 2 mg/kg, po administered as single cassette dose via gavage measured at 3 hrs post dose; assay type: ADME, organism-based
[2] = Ratio of drug level in liver to plasma in C57BL/6 mouse at 2 mg/kg, po administered as single cassette dose via gavage measured at 0.5 hrs post dose; assay type: ADME, organism-based
Bile acid receptor = molecular target: T1, Bile acid receptor (Homo sapiens, UniProt Q96RI1); test: Agonist activity at recombinant human GST-tagged FXR LBD (193 to 472 residues) expressed in baculovirus-infected insect cells assessed as recruitment of biotinylated SRC1 peptide measured after 1 hr by Alphascreen assay
T1 sequence (Q96RI1 whole entry): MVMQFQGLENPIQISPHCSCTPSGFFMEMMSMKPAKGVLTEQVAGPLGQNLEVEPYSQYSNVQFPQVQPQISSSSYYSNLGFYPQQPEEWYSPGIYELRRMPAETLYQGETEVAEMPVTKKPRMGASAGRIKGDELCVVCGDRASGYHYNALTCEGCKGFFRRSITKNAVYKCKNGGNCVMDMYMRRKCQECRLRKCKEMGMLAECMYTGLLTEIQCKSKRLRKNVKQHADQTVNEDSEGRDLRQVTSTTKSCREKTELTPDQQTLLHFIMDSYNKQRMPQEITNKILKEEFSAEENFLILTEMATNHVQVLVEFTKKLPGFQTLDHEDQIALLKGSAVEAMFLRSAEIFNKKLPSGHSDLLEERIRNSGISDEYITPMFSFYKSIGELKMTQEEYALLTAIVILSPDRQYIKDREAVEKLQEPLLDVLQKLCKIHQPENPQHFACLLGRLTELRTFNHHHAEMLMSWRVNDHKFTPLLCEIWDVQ

[3] = molecular target: T2, G-protein coupled bile acid receptor 1 (Homo sapiens, UniProt Q8TDU6); test: Agonist activity at human TGR5 expressed in HEK293 cells assessed as increase in intracellular cAMP level after 1 hr by TR-FRET assay; assay type: functional, cell-based
T2 sequence (Q8TDU6 whole entry): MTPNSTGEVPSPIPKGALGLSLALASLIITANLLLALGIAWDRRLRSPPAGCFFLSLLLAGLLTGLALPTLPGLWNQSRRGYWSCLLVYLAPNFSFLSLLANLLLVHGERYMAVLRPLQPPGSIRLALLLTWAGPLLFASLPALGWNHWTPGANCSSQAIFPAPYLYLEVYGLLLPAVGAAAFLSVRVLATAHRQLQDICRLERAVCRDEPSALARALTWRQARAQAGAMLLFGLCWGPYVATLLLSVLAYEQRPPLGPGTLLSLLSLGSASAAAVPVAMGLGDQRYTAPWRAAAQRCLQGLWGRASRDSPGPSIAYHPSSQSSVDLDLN

Homo sapiens = species on record: Homo sapiens; test: Selectivity ratio of EC50 for recombinant human GST-tagged FXR LBD (193 to 472 residues) expressed in baculovirus-infected insect cells to EC50 for human TGR5 expressed in HEK293 cells
[4] = molecular target: T3, Bile acid receptor (Homo sapiens) (UniProt Q96RI1); test: Agonist activity at recombinant human GST-tagged FXR LBD (193 to 472 residues) expressed in baculovirus-infected insect cells assessed as recruitment of biotinylated SRC1 peptide measured after 1 hr by Alphascreen assay relative to CDCA
T3 sequence (whole entry): T1 sequence (Q96RI1 whole entry)

[5] = Drug level in C57BL/6 mouse plasma at 2 mg/kg, po administered as single cassette dose via gavage measured at 3 hrs post dose by LC-MS/MS analysis; assay type: ADME, organism-based
[6] = Drug level in C57BL/6 mouse plasma at 2 mg/kg, po administered as single dose via gavage measured at 0.5 hrs post dose by LC-MS/MS analysis; assay type: ADME, organism-based
[7] = Drug level in C57BL/6 mouse liver at 2 mg/kg, po administered as single cassette dose via gavage measured at 0.5 hrs post dose by LC-MS/MS analysis; assay type: ADME, organism-based; conditions: in vivo
[8] = Drug level in C57BL/6 mouse liver at 2 mg/kg, po administered as single cassette dose via gavage measured at 3 hrs post dose by LC-MS/MS analysis; assay type: ADME, organism-based; conditions: in vivo
[9] = Cmax in C57BL/6 mouse at 10 mg/kg, po administered via gavage; assay type: ADME, organism-based; set-up: dose 10 mg/kg, route oral; conditions: in vivo
Mus musculus [10] = test: Anti-hepatic steatosis activity in HFD/CCl4-induced non-alcoholic hepatic steatosis C57BL/6 mouse model assessed as reduction in hepatic steatosis score at 30 mg/kg, po administered once daily via gavage for 28 days measured at post last dose by hematoxylin-eosin staining based assay; assay type: ADME, organism-based; conditions: in vivo, 672 h
Mus musculus [11] = test: Tmax in C57BL/6 mouse assessed as tauro-INT-747 level at 10 mg/kg, po administered via gavage; assay type: ADME, organism-based; conditions: in vivo
[12] = Tmax in C57BL/6 mouse at 10 mg/kg, po administered via gavage; assay type: ADME, organism-based; conditions: in vivo
Mus musculus [13] = test: Cmax in C57BL/6 mouse assessed as tauro-INT-747 level at 10 mg/kg, po administered via gavage; assay type: ADME, organism-based; set-up: dose 10 mg/kg, route oral; conditions: in vivo
[14] = Drug level in C57BL/6 mouse liver at 10 mg/kg, po administered as single dose via gavage measured at 3 hrs post dose by LC-MS/MS analysis; assay type: ADME, organism-based; conditions: in vivo
Mus musculus [15] = test: Cmax in C57BL/6 mouse assessed as glyco-INT-747 level at 10 mg/kg, po administered via gavage; assay type: ADME, organism-based; set-up: dose 10 mg/kg, route oral; conditions: in vivo, BLD = below limit of detection
[16] = AUC in C57BL/6 mouse at 10 mg/kg, po administered via gavage; assay type: ADME, organism-based; conditions: in vivo
[17] = Drug level in C57BL/6 mouse plasma at 10 mg/kg, po administered as single dose via gavage measured at 0.5 hrs post dose by LC-MS/MS analysis; assay type: ADME, organism-based
Mus musculus [18] = test: AUC in C57BL/6 mouse assessed as tauro-INT-747 level at 10 mg/kg, po administered via gavage; assay type: ADME, organism-based; conditions: in vivo
[19] = Drug level in C57BL/6 mouse plasma at 10 mg/kg, po administered as single dose via gavage measured at 3 hrs post dose by LC-MS/MS analysis; assay type: ADME, organism-based
Mus musculus [20] = test: Anti-hepatic steatosis activity in HFD/CCl4-induced non-alcoholic hepatic steatosis C57BL/6 mouse model assessed as reduction in triglyceride level at 30 mg/kg, po administered once daily via gavage for 28 days measured at post last dose by […] assay; assay type: ADME, organism-based; conditions: in vivo, 672 h
Mus musculus [21] = test: AUC in C57BL/6 mouse assessed as glyco-INT-747 level at 10 mg/kg, po administered via gavage; assay type: ADME, organism-based; conditions: in vivo, BLD = below limit of detection
[22] = Drug level in C57BL/6 mouse liver at 10 mg/kg, po administered as single dose via gavage measured at 0.5 hrs post dose by LC-MS/MS analysis; assay type: ADME, organism-based; conditions: in vivo
Mus musculus [23] = test: Anti-hepatic steatosis activity in HFD/CCl4-induced non-alcoholic hepatic steatosis C57BL/6 mouse model assessed as reduction in liver fibrosis at 30 mg/kg, po administered once daily via gavage for 28 days measured at post last dose by sirus red staining based assay; assay type: ADME, organism-based; conditions: in vivo, 672 h

Structure (SMILES)	Kp at 3 h [1]	Kp at 0.5 h [2]	EC50 (Bile acid receptor) [nM]	EC50 [3] [nM]	concentration at 3 h [5] [nM]	concentration at 0.5 h [6] [nM]	Drug uptake [7] [nmol/kg]	Drug uptake [8] [nmol/kg]	further results
CC[C@H]1[C@@H](O)[C@@H]2[C@H](CC[C@]3(C)[C@@H]([C@H](C)CCc4cc(O)no4)CC[C@@H]23)[C@@]2(C)CC[C@@H](O)C[C@@H]12	43	44	30	520	6	43	1896	257	Ratio EC50 (Homo sapiens): 17; Efficacy [4]: 121%
CC[C@H]1[C@@H](O)[C@@H]2[C@H](CC[C@]3(C)[C@@H]([C@H](C)CCc4nnn[nH]4)CC[C@@H]23)[C@@]2(C)CC[C@@H](O)C[C@@H]12	76	7	60	1770	19	868	5693	1443	–
CC[C@H]1[C@@H](O)[C@@H]2[C@H](CC[C@]3(C)[C@@H]([C@H](C)CCC(=O)O)CC[C@@H]23)[C@@]2(C)CC[C@@H](O)C[C@@H]12 [OBETICHOLIC ACID]	–	–	–	–	64	151	711	625	Cmax [9]: 1540 nM; Activity (Mus musculus [10]): Active; Tmax (Mus musculus [11]): 480 min; Tmax [12]: 15 min; Cmax (Mus musculus [13]): 838 nM; Drug uptake [14]: 111 nmol/kg; Cmax (Mus musculus [15]): Bld; AUC [16]: 0.713 µM·h; concentration at 0.5 h [17]: 478 nM; AUC (Mus musculus [18]): 18.059 µM·h; concentration at 3 h [19]: 10 nM; Activity (Mus musculus [20]): Active; AUC (Mus musculus [21]): Bld; Drug uptake [22]: 1723 nmol/kg; Activity (Mus musculus [23]): Active
